Holding throughout (test): stopped-flow CO2 hydration assay
Type in all cases: biochemical

Assay [1] addresses T1, hCA IV (Homo sapiens, UniProt P22748).
T1 construct: gene CA4
From the text:
stopped-flow CO2 hydration assay on hCA IV

Assay [2] addresses T2, hCA II (Homo sapiens, UniProt P00918).
T2 construct: gene CA2; recombinant, cytosolic isoform
An excerpt:
stopped-flow CO2 hydration assay on hCA II

Assay [3] concerns the target T3, hCA I (Homo sapiens, UniProt P00915).
T3 construct: gene CA1; recombinant, cytosolic isoform
An excerpt: stopped-flow CO2 hydration assay on hCA I

Where [4] appears, read: CO2 hydration, […] Hepes pH […] °C, […] Na2SO4 or NaClO4, […] min preincubation.

Usually Ki stands for a dissociation constant, usually derived from enzyme kinetics or from competition with a known ligand. Low values mean higher affinity, high ones lower affinity.

Read-outs that look alike come from different tables or passages of the source.

T1 sequence (P22748 19-284): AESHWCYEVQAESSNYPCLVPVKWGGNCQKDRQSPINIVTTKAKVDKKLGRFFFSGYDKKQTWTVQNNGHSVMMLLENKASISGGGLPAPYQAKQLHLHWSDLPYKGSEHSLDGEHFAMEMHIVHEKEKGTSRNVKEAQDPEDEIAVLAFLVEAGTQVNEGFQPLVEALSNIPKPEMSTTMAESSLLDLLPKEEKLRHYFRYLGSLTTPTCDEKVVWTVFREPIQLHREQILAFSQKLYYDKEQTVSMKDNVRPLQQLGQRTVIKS
T3 sequence (P00915 2-261): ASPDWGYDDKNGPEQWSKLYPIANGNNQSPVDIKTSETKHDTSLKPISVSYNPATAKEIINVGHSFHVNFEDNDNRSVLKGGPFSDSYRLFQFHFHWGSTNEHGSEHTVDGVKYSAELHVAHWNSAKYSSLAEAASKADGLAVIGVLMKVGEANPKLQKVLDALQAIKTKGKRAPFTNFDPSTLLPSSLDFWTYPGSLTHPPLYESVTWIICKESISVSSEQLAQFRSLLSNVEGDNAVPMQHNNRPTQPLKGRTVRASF

On to `NS(=O)(=O)c1ccc(NC(=O)c2ccc3cccc(OCc4ccc([N+](=O)[O-])cc4)c3n2)cc1` [5a, 8-((4-Nitrobenzyl)oxy)-N-(4-sulfamoylphenyl)quinoline-2-carboxamide], for which the figures for the inhibitory constant (Ki) in assay [1], in assay [2] and in assay [3] were 0.691 µM, 0.0884 µM and 0.641 µM, respectively.
As to `NS(=O)(=O)c1ccc(NC(=O)c2ccc3cccc(OCc4ccccc4Br)c3n2)cc1` [5b, 8-((2-Bromobenzyl)oxy)-N-(4-sulfamoylphenyl)quinoline-2-carboxamide], the inhibition constant Ki in assay [1] stood at 3.93 µM; in assay [2], 0.0857 µM; in assay [3], 0.444 µM.
On to `NS(=O)(=O)c1ccc(NC(=O)c2ccc3cccc(OCc4ccccc4)c3n2)cc1` [5c, 8-(Benzyloxy)-N-(4-sulfamoylphenyl)quinoline-2-carboxamide], for which the inhibition constant (Ki) came out at 6.41 µM in assay [1], 8.34 µM in assay [2] and 5.29 µM in assay [3].
For `Cc1cc(C)cc(COc2cccc3ccc(C(=O)Nc4ccc(S(N)(=O)=O)cc4)nc23)c1` [5d, 8-((3,5-Dimethylbenzyl)oxy)-N-(4-sulfamoylphenyl)quinoline-2-carboxamide], the Ki in assay [1] turned out to be 6.76 µM; in assay [2], 8.76 µM; in assay [3], 8.13 µM.
Regarding `NS(=O)(=O)c1ccc(NC(=O)c2ccc3cccc(OCc4cccc(Cl)c4)c3n2)cc1` [5e, 8-((3-Chlorobenzyl)oxy)-N-(4-sulfamoylphenyl)quinoline-2-carboxamide], the figures for the Ki in assay [1], in assay [2] and in assay [3] were 0.807 µM, 5.17 µM and 6.47 µM, respectively.
For `NS(=O)(=O)c1ccc(NC(=O)c2ccc3cccc(OCc4cc(F)ccc4F)c3n2)cc1` [5f, 8-((2,5-Difluorobenzyl)oxy)-N-(4-sulfamoylphenyl)quinoline-2-carboxamide], the values for the Ki in assay [1], in assay [2] and in assay [3] were 0.787 µM, 0.957 µM and 6.56 µM, respectively.
Regarding `C#CCOc1cccc2ccc(C(=O)Nc3ccc(S(N)(=O)=O)cc3)nc12` [5g, 8-(Prop-2-yn-1-yloxy)-N-(4-sulfamoylphenyl)quinoline-2-carboxamide], the Ki in assay [1] is 0.657 µM; in assay [2], 5.11 µM; in assay [3] it was 6.91 µM.
Regarding `COc1cccc2ccc(C(=O)Nc3ccc(S(N)(=O)=O)cc3)nc12` [5h, 8-Methoxy-N-(4-sulfamoylphenyl)quinoline-2-carboxamide], the inhibitory constant (Ki) in assay [1] came to 1.75 µM; in assay [2] (setting [4]), 0.033 µM; in assay [3] (setting [4]), 0.0619 µM.

Source of the values: PMC6586119, “Synthesis and biological evaluation of novel 8-substituted quinoline-2-carboxamides as carbonic anhydrase inhibitors” (Journal of Enzyme Inhibition and Medicinal Chemistry, 2019).
